Laboratory results as given in patent US10047084B2, “Imidazolone derivatives, pharmaceutical compositions and uses thereof” (BEIJING FORELANDPHARMA CO. LTD., priority 2013, dated 2018).
pEC50: −log10 of the molar value.

Key:
SK-BR3/BT474 = assay: CTG cell survival assay, SK-BR3/BT474; format: cell-based; conditions: SK-BR3/BT474 cells
Text: (§1) 2. CTG Cell Survival Assay:
(§2) ATP is necessarily produced during the metabolic activities of viable cells, and there is a linear relationship between the content of ATP and the number of viable cells. Cell viability assay by CTG chemiluminescence is a general method for detecting the number of viable cells in the culture cells based on this principle. The addition of the CellTiter-Glo (CTG) reagent may induce cell lysis and produce chemiluminescent signals directly proportional to the amount of ATP in the well-plate, and thereby the cell proliferation activity in the well-plate can be measured by the reading values from the chemiluminescence.
(§3) 2.1 Experimental Materials and Instruments:
(§4) 2.4 Experimental Procedure: • 1.4.1 Cell Thawing: Cryogenic vials were removed from the liquid nitrogen container, directly immersed in a water bath at 37° C., and shaked from time to time to thaw. The cryogenic vials were removed from the water bath at 37° C., and transferred to the biosafe cabinet. Their lids were opened, and the cell suspensions were aspirated with pipettes, added to centrifuge tubes, and then added with more than 10 volumes of culture solution, mixed well; centrifuged for 5 min at 1000 rpm; the supernatant was discarded, and medium containing cell growth was added to resuspend cells. All cell suspensions were seeded to the T25 culture flasks and static cultured in an incubator at 37° C.; the culture solution were changed once on the next day, and continued to be cultured. • 2.4.2 Cell Passaging: After cells were grown to logarithmic phase and were 80%-90% confluent, cells were removed and placed in the biosafe cabinet, the old culture solution was discarded, and the cells were wetted and washed with PBS once or twice. An appropriate amount of 0.25% Trypsin-EDTA solution was added to the culture flasks. The flasks were placed in the carbon dioxide incubator at 37° C. for 2-5 min. An appropriate amount of cell growth medium containing 10% PBS was added to terminate the digestion, lightly swished, and transferred to the centrifuge tubes and centrifuged for 5 min at 1000 rpm. The cells were prepare (into cell suspensions for passaging and experimental use. • 2.4.3 Cell Plating • 2.4.3.1 A cell suspension was prepared: After cells were grown to logarithmic phase and were 80%-90% confluent, the cells were removed to the biosafe cabinet, and the old culture solution was discarded, then the cells were wetted and washed with PBS once or twice. An appropriate amount of 0.25% Trypsin-EDTA solution was added to the culture flask. The flask was placed in a carbon dioxide incubator at 37° C. for 2-5 min. An appropriate amount of the cell growth medium containing 10% PBS was added to terminate digestion, and was lightly swished. The solution was transferred to a centrifuge tube, centrifuged for 5 min at 1000 rpm, and counted. […] Secondly, 20 uM of the compound to be tested was diluted with the cell growth medium containing 0.2% DMSO in 3-fold dilution to obtain 9 concentrations, and there were 10 concentration gradients in total. • 2.4.4.3 Addition of the compounds to be tested: the prepared gradient dilution solutions of compounds to be tested were taken and added to the cell culture plate at 100 ul/well; at this point, the maximum concentration of compounds to be tested was 10 uM, and the concentration of DMSO was 0.1%.

PC-3 = assay: CTG cell survival assay, PC-3; format: cell-based; conditions: Homo sapiens, PC-3 cells
Text: as §1, §2, §3, §4

## Cn1c(=O)n([C@H]2CCN(S(C)(=O)=O)C2)c2c3cc(-c4ccc(-n5ccnn5)nc4)ccc3ncc21 [Example 46, (S)-8-(6-(1H-1,2,3-triazol-1-yl)pyridin-3-yl)-3-methyl-1-(1-(methanesulfonyl)pyrrolidin-3-yl)-1H-imidazo[4,5-c]quinolin-2(3H)-one]
SK-BR3/BT474
  pEC50: 6.40

## Cn1cnc(-c2ccc(-c3ccc4ncc5c(c4c3)n([C@H]3CCN(S(C)(=O)=O)C3)c(=O)n5C)cn2)n1 [Example 48, (S)-3-methyl-8-(6-(1-methyl-1H-1,2,4-triazol-3-yl)pyridin-3-yl)-1-(1-(methanesulfonyl)pyrrolidin-3-yl)-1H-imidazo[4,5-c]quinolin-2(3H)-one]
SK-BR3/BT474
  pEC50: > 7.00

## Cn1cc(-c2ccc(-c3ccc4ncc5c(c4c3)n([C@@H]3CCCN(S(=O)(=O)C4CC4)C3)c(=O)n5C)cn2)cn1 [Example 53, (R)-1-(1-(cyclopropylsulfonyl)piperidin-3-yl)-3-methyl-8-(6-(1-methyl-1H-pyrazol-4-yl)pyridin-3-yl)-1H-imidazo[4,5-c]quinolin-2(3H)-one]
PC-3
  pEC50: > 7.70
SK-BR3/BT474
  pEC50: 7.00

## Cn1cc(-c2ccc(-c3ccc4ncc5c(c4c3)n([C@@H]3CCCN(S(N)(=O)=O)C3)c(=O)n5C)cn2)cn1 [Example 54, (R)-3-(3-methyl-8-(6-(1-methyl-1H-pyrazol-4-yl)pyridin-3-yl)-2-oxo-2,3-dihydro-1H-imidazo[4,5-c]quinolin-1-yl)piperidine-1-sulfamide]
SK-BR3/BT474
  pEC50: 7.15

## Cn1cc(-c2ccc(-c3ccc4ncc5c(c4c3)n(CCNS(C)(=O)=O)c(=O)n5C)cn2)cn1 [Example 63, N-(2-(3-methyl-8-(6-(1-methyl-1H-pyrazol-4-yl)pyridin-3-yl)-2-oxo-2,3-dihydro-1H-imidazo[4,5-c]quinolin-1-yl)ethyl)methanesulfonamide]
SK-BR3/BT474
  pEC50: 6.52

## Cn1cc(-c2ccc(-c3ccc4ncc5c(c4c3)n(C3CN(S(C)(=O)=O)C3)c(=O)n5C)cn2)cn1 [Example 64, 3-methyl-8-(6-(1-methyl-1H-pyrazol-4-yl)pyridin-3-yl)-1-(1-(methanesulfonyl)azetidin-3-yl)-1H-imidazo[4,5-c]quinolin-2(3H)-one]
SK-BR3/BT474
  pEC50: 6.70
